Measured values from paper PMC6219668 (Oncotarget, 2018).

Test system: panel of nearly 500 cancer cell lines
Assay: Cancer Cell Line Encyclopedia profiling, 3-day CellTiter-Glo
Assay type: cell-based
Design: Amax: unit not given here

For CC(=O)c1c(C)c2cnc(Nc3ccc(N4CCNCC4)cn3)nc2n(C2CCCC2)c1=O [Palbociclib, reference compound], the EC50 (Homo sapiens, P3HR-1) was > 8 µM, the EC50 (Homo sapiens, P31-FUJ) was > 8 µM and the EC50 (Homo sapiens, PANC-03-27) was > 8 µM. For the same compound, the EC50 (Homo sapiens, PLC-PRF-5) was 1.79 µM, the EC50 (Homo sapiens, Panc 02.03) was 1.14 µM and the EC50 (Homo sapiens, Panc 04.03) was > 8 µM. For the same compound, the EC50 (Homo sapiens, Panc1005) was > 8 µM, the EC50 (Homo sapiens, Pfeiffer) was 6.95 µM and the EC50 (Homo sapiens, RL95-2) was > 8 µM. The EC50 (Homo sapiens, RT-112) was 2.29 µM, the EC50 (Homo sapiens, RVH-421) was 0.689 µM and the EC50 (Homo sapiens, Raji) was > 8 µM. The EC50 (Homo sapiens, SAOS-2) was > 8 µM, the EC50 (Homo sapiens, SBC-5) was 1.11 µM and the EC50 (Homo sapiens, SCC-25) was 0.782 µM. For the same compound, the EC50 (Homo sapiens, SCaBER) was > 8 µM, the EC50 (Homo sapiens, SF-126) was > 8 µM and the EC50 (Homo sapiens, SF-295) was > 8 µM. The EC50 (Homo sapiens, SHP77) was > 8 µM, the EC50 (Homo sapiens, SJRH30) was > 8 µM and the EC50 (Homo sapiens, SJSA-1) was > 8 µM. The EC50 (Homo sapiens, SK-BR-3) was > 8 µM, the EC50 (Homo sapiens, SK-CO-1) was > 8 µM and the EC50 (Homo sapiens, SK-ES1) was 6.37 µM. For the same compound, the EC50 (Homo sapiens, SK-HEP1) was 0.516 µM, the EC50 (Homo sapiens, SK-LU-1) was > 8 µM and the EC50 (Homo sapiens, SK-MEL-2) was > 8 µM. The EC50 (Homo sapiens, SK-MEL-5) was > 8 µM, the EC50 (Homo sapiens, SK-MEL-24) was > 8 µM and the EC50 (Homo sapiens, SK-MEL-30) was > 8 µM. For the same compound, the EC50 (Homo sapiens, SK-MM-2) was 2.62 µM, the EC50 (Homo sapiens, SK-N-AS) was 1.11 µM and the EC50 (Homo sapiens, SK-N-DZ) was 2.73 µM. The EC50 (Homo sapiens, SK-N-SH) was 1.25 µM, the EC50 (Homo sapiens, SK-OV-3) was 2.22 µM and the EC50 (Homo sapiens, SKNBE2) was 4.99 µM. For the same compound, the EC50 (Homo sapiens, SNU1) was > 8 µM, the EC50 (Homo sapiens, SNU-16) was > 8 µM and the EC50 (Homo sapiens, SNU-182) was > 8 µM. For the same compound, the EC50 (Homo sapiens, SNU-423) was 2.01 µM, the EC50 (Homo sapiens, SNU-449) was > 8 µM and the EC50 (Homo sapiens, SNU-C2B) was > 8 µM. For the same compound, the EC50 (Homo sapiens, SU-DHL10) was 3.42 µM, the EC50 (Homo sapiens, SU-DHL-8) was 0.475 µM and the EC50 (Homo sapiens, SU.86.86) was > 8 µM. The EC50 (Homo sapiens, SUP-T1) was > 8 µM, the EC50 (Homo sapiens, SW48) was > 8 µM and the EC50 (Homo sapiens, SW480) was 1.24 µM. The EC50 (Homo sapiens, SW780) was 0.832 µM, the EC50 (Homo sapiens, SW900) was > 8 µM and the EC50 (Homo sapiens, SW1353) was > 8 µM. For the same compound, the EC50 (Homo sapiens, SW1990) was 5.78 µM, the EC50 (Homo sapiens, SW-403) was > 8 µM and the EC50 (Homo sapiens, SW-620) was 2.93 µM. For the same compound, the EC50 (Homo sapiens, T47D) was > 8 µM, the EC50 (Homo sapiens, T98G) was > 8 µM and the EC50 (Homo sapiens, TCC-SUP) was 2.08 µM. The EC50 (Homo sapiens, TOV21G) was > 8 µM, the EC50 (Homo sapiens, TOV112D) was 2.03 µM and the EC50 (Homo sapiens, Toledo) was > 8 µM. The EC50 (Homo sapiens, U2OS) was 3.62 µM, the EC50 (Homo sapiens, U-87 MG) was 2.01 µM and the EC50 (Homo sapiens, U-118-MG) was 0.523 µM. The EC50 (Homo sapiens, U-937) was > 8 µM, the EC50 (Homo sapiens, UACC-812) was > 8 µM and the EC50 (Homo sapiens, UMUC3) was > 8 µM. The EC50 (Homo sapiens, YKG-1) was 7.39 µM, the EC50 (Homo sapiens, ZR-75-30) was > 8 µM and the EC50 (Hs766T) was 1.52 µM. The EC50 (IGR-39) was > 8 µM, the EC50 (JHH-2) was > 8 µM and the EC50 (JHH-4) was > 8 µM. The EC50 (JMSU-1) was 1.32 µM, the EC50 (KE-97) was 2.26 µM and the EC50 (KMRC-1) was > 8 µM. For the same compound, the EC50 (KMS-26) was 1.33 µM, the EC50 (LOU-NH91) was > 8 µM and the EC50 (LUDLU-1) was 0.74 µM. For the same compound, the EC50 (NCI-H322) was > 8 µM, the EC50 (NCI-H1568) was 2.63 µM and the EC50 (NCI-H1915) was > 8 µM. The EC50 (NCI-H2023) was 1.12 µM, the EC50 (NCI-H2172) was > 8 µM and the EC50 (OCUM1) was 1.37 µM. For the same compound, the EC50 (OE21) was 4.75 µM, the EC50 (ONCO-DG-1) was > 8 µM and the EC50 (PK-59) was 1.51 µM. For the same compound, the EC50 (PL45) was > 8 µM, the EC50 (SH-10-TC) was > 8 µM and the EC50 (SUIT-2) was 1.18 µM. For the same compound, the EC50 (SUP-M2) was > 8 µM, the EC50 (SW579) was 1.3 µM and the EC50 (SW1271) was > 8 µM. The EC50 (TC-71) was > 8 µM, the Amax (a172 (central_nervous_system)) was 3.605 and the Amax (a204 (soft_tissue)) was -34.4227. The Amax (a253 (salivary_gland)) was 3.868, the Amax (a375 (skin)) was -26.2658 and the Amax (a2058 (skin)) was 2.616. The Amax (a2780 (ovary)) was -39.663, the Amax (gb1 (central_nervous_system)) was -42.437 and the Amax (gciy (stomach)) was -7.059. For the same compound, the Amax (gct (soft_tissue)) was -52.5722, the Amax (glc82 (lung)) was -19.1977 and the Amax (gms10 (central_nervous_system)) was -27.0424. For the same compound, the Amax (h4 (central_nervous_system)) was -32.9184, the Amax (hcc15 (lung)) was -12.0125 and the Amax (hcc56 (large_intestine)) was -4.352. For the same compound, the Amax (hcc70 (breast)) was -11.029, the Amax (hcc78 (lung)) was -19.9044 and the Amax (hcc1187 (breast)) was -9.361. For the same compound, the Amax (hcc1569 (breast)) was -39.1174, the Amax (hcc1806 (breast)) was 0.7921 and the Amax (hcc1954 (breast)) was -54.5847. It also gave an Amax (hcc2935 (lung)) of -14.5087, an Amax (hcc4006 (lung)) of -19.6287 and an Amax (hct15 (large_intestine)) of -2.41. The Amax (hct116 (large_intestine)) was 1.94, the Amax (hec1a (endometrium)) was -22.7551 and the Amax (hec1b (endometrium)) was -58.5184. The Amax (hec59 (endometrium)) was -33.0687, the Amax (hec151 (endometrium)) was -3.536 and the Amax (hec251 (endometrium)) was -0.6256. It also gave an Amax (hec265 (endometrium)) of 2.121, an Amax (hel9217 (haematopoietic_and_lymphoid_tissue)) of 11.0391 and an Amax (hep3b217 (liver)) of 6.257. For the same compound, the Amax (hepg2 (liver)) was -38.1063, the Amax (heya8 (ovary)) was -39.168 and the Amax (hgc27 (stomach)) was -60.1752. For the same compound, the Amax (hh (haematopoietic_and_lymphoid_tissue)) was -43.6309, the Amax (hle (liver)) was -2.411 and the Amax (hlf (liver)) was 2.5318. The Amax (hmc18 (breast)) was -23.3461, the Amax (hmcb (skin)) was -32.1017 and the Amax (hos (bone)) was -5.005. The Amax (hpac (pancreas)) was -39.6565, the Amax (hs229t (lung)) was -46.3597 and the Amax (hs294t (skin)) was -3.363. It also gave an Amax (hs578t (breast)) of -24.7522, an Amax (hs683 (central_nervous_system)) of -14.5926 and an Amax (hs695t (skin)) of -1.411. For the same compound, the Amax (hs739t (breast)) was -16.3381, the Amax (hs746t (stomach)) was -17.4326 and the Amax (hs766t (pancreas)) was -19.984. For the same compound, the Amax (hs840t (upper_aerodigestive_tract)) was -48.5098, the Amax (hs852t (skin)) was -23.0246 and the Amax (hs895t (skin)) was -52.8812. The Amax (hs936t (skin)) was -33.7794, the Amax (hs939t (skin)) was -41.6297 and the Amax (hs944t (skin)) was -2.178. For the same compound, the Amax (hsc2 (upper_aerodigestive_tract)) was 2.874, the Amax (ht29 (large_intestine)) was -25.1424 and the Amax (ht144 (skin)) was 4.385. The Amax (ht1080 (soft_tissue)) was 5.952, the Amax (ht1197 (urinary_tract)) was 6.185 and the Amax (ht1376 (urinary_tract)) was 5.627. It also gave an Amax (ht (haematopoietic_and_lymphoid_tissue)) of 15.5049, an Amax (hucct1 (biliary_tract)) of -2.064 and an Amax (huh1 (liver)) of -48.0113. For the same compound, the Amax (hupt3 (pancreas)) was -32.9102, the Amax (hupt4 (pancreas)) was -9.371 and the Amax (hut78 (haematopoietic_and_lymphoid_tissue)) was -6.156. For the same compound, the Amax (ialm (lung)) was 2.617, the Amax (igr37 (skin)) was -4.699 and the Amax (igr39 (skin)) was 3.52. The Amax (igrov1 (ovary)) was 1.295, the Amax (imr32 (autonomic_ganglia)) was -46.7636 and the Amax (ipc298 (skin)) was -1.835. It also gave an Amax (istmes1 (pleura)) of -16.4542, an Amax (istmes2 (pleura)) of -52.8976 and an Amax (j82 (urinary_tract)) of -1.0373. The Amax (jhh2 (liver)) was -0.7698, the Amax (jhh4 (liver)) was 0.2039 and the Amax (jhh6 (liver)) was 2.0754. For the same compound, the Amax (jhos2 (ovary)) was 7.671, the Amax (jhos4 (ovary)) was 13.7773 and the Amax (jm1 (haematopoietic_and_lymphoid_tissue)) was -48.4258. It also gave an Amax (jmsu1 (urinary_tract)) of -46.3166, an Amax (k029ax (skin)) of -20.9241 and an Amax (kals1 (central_nervous_system)) of 3.749. It also gave an Amax (karpas299 (haematopoietic_and_lymphoid_tissue)) of -53.2153, an Amax (karpas422 (haematopoietic_and_lymphoid_tissue)) of 0.8347 and an Amax (ke39 (stomach)) of -57.8035. For the same compound, the Amax (ke97 (haematopoietic_and_lymphoid_tissue)) was -62.2019, the Amax (kg1 (haematopoietic_and_lymphoid_tissue)) was 7.475 and the Amax (kle (endometrium)) was -0.3583. For the same compound, the Amax (kmbc2 (urinary_tract)) was -20.7254, the Amax (kmrc1 (kidney)) was -29.7335 and the Amax (kms12bm (haematopoietic_and_lymphoid_tissue)) was -27.7827. For the same compound, the Amax (kms26 (haematopoietic_and_lymphoid_tissue)) was -78.7112 and the Amax (kns42 (central_nervous_system)) was -28.8816.
